Our source for the inhibition and IC50 values is article PMC12818745 (ACS Chemical Neuroscience, 2025).

T1 sequence (P05067 672-713): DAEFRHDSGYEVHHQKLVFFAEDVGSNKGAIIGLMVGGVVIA
Sequence of eeAChE (Electrophorus electricus AChE) (O42275 24-633): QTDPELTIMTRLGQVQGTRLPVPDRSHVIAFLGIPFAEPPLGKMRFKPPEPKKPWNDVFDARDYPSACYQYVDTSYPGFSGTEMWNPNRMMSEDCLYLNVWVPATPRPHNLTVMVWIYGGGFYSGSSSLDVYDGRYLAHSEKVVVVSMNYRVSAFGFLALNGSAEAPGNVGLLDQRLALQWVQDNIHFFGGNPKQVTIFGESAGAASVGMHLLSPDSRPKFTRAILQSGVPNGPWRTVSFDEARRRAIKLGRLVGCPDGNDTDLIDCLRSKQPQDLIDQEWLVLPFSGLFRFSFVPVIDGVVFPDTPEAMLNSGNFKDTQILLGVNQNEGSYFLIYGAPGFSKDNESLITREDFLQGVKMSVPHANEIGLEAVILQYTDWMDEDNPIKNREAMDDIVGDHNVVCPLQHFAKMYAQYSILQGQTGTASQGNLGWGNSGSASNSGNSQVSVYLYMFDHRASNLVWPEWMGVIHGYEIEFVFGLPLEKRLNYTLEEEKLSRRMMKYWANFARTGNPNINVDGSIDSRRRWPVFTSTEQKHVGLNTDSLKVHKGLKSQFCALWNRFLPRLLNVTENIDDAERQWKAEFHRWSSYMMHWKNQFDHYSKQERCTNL

One test addresses T1, Aβ42 aggregation (Homo sapiens, UniProt P05067).
T1 construct: expressed in transfected cells; host or cells: E. coli BL21 (DE3), pET vector
As to the kind of experiment: Thioflavin S assay of Aβ42 aggregation in E. coli cells overexpressing Aβ42. Format: cell-based, Escherichia coli. The settings on record: read-out: Aβ42 inhibition %. As for the experimental part: The antiaggregating profiles of both series A and B were evaluated using a fluorescence Thioflavin S (ThS) assay in cellulo, which monitors ThS fluorescence in the presence of β-sheet-rich structures, such as Aβ and tau protein aggregates. This method, based on recombinant Escherichia coli (E. coli) bacteria overexpressing insoluble aggregates, offers a simple and cost-effective approach to model aggregation processes in mammalian systems and has been validated for use in drug discovery studies. , Compounds were tested at a screening concentration of 50 μM for their ability to inhibit Aβ42 aggregation. The results, summarized in Table , reveal distinct antiaggregating profiles between series A and B, which are once again influenced by their structural differences.
42 Amino acid Aβ42 was cloned and overexpressed in E. coli BL21 (DE3) competent cells using the pET vector harboring the DNA sequence of Aβ42. Due to the addition of the initiation codon ATG preceding genes, the resulting overexpressed peptide contained an additional methionine residue at its N-terminus. For the preparation of overnight cultures, a colony of BL21 (DE3) cells carrying the plasmid for expression was inoculated in 10 mL of M9 minimal medium supplemented with 50 μg mL^–1 kanamycin at 37 °C. Subsequently, a 1:500 dilution of the overnight culture was added to fresh M9 minimal medium containing 50 μg mL^–1 kanamycin and 25 μM ThS. The bacterial culture was then incubated at 37 °C with agitation at 250 rpm. Upon reaching an OD600 of 0.6, 980 μL of the culture was transferred into 1.5 mL Eppendorf tubes, each containing 10 μL of the compound to be tested dissolved in DMSO and 10 μL of 100 mM isopropyl 1-thio-β-D-galactopyranoside (IPTG) or, alternatively, 10 μL of water for the noninduced controls. The final compound concentration was adjusted to […]. The samples were allowed to grow overnight at 37 °C with agitation at 1400 rpm using a Thermomixer (Eppendorf). Negative controls, representing maximum amyloid presence, utilized free DMSO.
ThS (T1892) and all other chemical reagents were purchased from Sigma (St. Louis, MO). Stock solutions of ThS (250 μM) were prepared using doubly distilled water purified via a Milli-Q system (Millipore). For the fluorescence assay, ThS spectra were recorded utilizing an AmincoBowman series 2 luminescence spectrophotometer (Aminco-Bowman AB2, SLM Aminco, Rochester, NY) within the range of 460 to 600 nm at a temperature of 25 °C. The excitation wavelength employed was 445 nm, with slit widths set at 4 nm. The emission at 485 nm, corresponding to the ThS peak observed in the presence of amyloids, was recorded. To standardize ThS fluorescence relative to bacterial concentration in both in vitro and cell-based assays, the OD600 was determined using a Shimadzu UV-2401 PC UV–vis spectrophotometer. Fluorescence normalization was executed by setting the ThS fluorescence of bacterial cells expressing the peptide or protein in the absence of the drug as 100%, while that of bacterial cells not expressing the peptide or protein was established as 0%.
As usually defined, the inhibition is the share of the control response that was lost under treatment. As for `C#CCOc1ccc(OC)cc1/C=C/c1cc(=O)c2ccccc2o1` [Compound 7f, (E)-2-[5-Methoxy-2-(prop-2-yn-1-yloxy)styryl]-4H-chromen-4-one], the inhibition at 50 µM was 15 ± 2.7%.
Same read-out and setting: for `C#CCOc1ccc(OC(F)(F)F)cc1/C=C/c1cc(=O)c2ccccc2o1` [Compound 7h, (E)-2-[2-(Prop-2-yn-1-yloxy)-5-(trifluoromethoxy)styryl]-4H-chromen-4-one] the value was 11 ± 2%.
Consider `C#CCOc1c(Br)cc(Cl)cc1/C=C/c1cc(=O)c2ccc(OC)cc2o1` [Compound 7w, (E)-2-[3-Bromo-5-chloro-2-(prop-2-yn-1-yloxy)styryl]-7-methoxy-4H-chromen-4-one], for which the inhibition at 50 µM was found to be 35 ± 3%.
Consider `O=c1c2ccccc2oc2cc3c(cc12)COc1ccc(Cl)cc1-3` [Compound 11j, 2-Chloro-6H,8H-chromeno[3,4-b]xanthen-8-one], for which the inhibition at 50 µM came out at 45 ± 7.4%.
With `COc1ccc(C#CCOc2ccccc2/C=C/c2cc(=O)c3ccccc3o2)cc1` [Compound 7n, (E)-2-(2-{[3-(4-Methoxyphenyl)prop-2-yn-1-yl]oxy}styryl)-4H-chromen-4-one], the inhibition at 50 µM was determined as 34 ± 3.3%.
For `C#CCOc1ccc2ccccc2c1/C=C/c1cc(=O)c2ccc(OC)cc2o1` [Compound 8b], the inhibition at 50 µM was found to be 32 ± 4.3%.
For the compound `COc1ccc2c(c1)-c1cc3oc4c(OC)c(OC)ccc4c(=O)c3cc1CO2` [Compound 11n, 2,11,12-Trimethoxy-6H,8H-chromeno[3,4-b]xanthen-8-one], the inhibition at 50 µM was found to be 34 ± 4%.
On to `C#CCOc1ccc(Br)cc1/C=C/c1cc(=O)c2ccccc2o1` [Compound 7g, (E)-2-[5-Bromo-2-(prop-2-yn-1-yloxy)styryl]-4H-chromen-4-one], for which the inhibition at 50 µM came out at 25 ± 4.6%.
Consider `O=c1c2ccccc2oc2cc3c(cc12)COc1ccccc1-3` [Compound 11a, 6H,8H-Chromeno[3,4-b]xanthen-8-one], for which the inhibition at 50 µM amounted to 15 ± 4.6%.
The same measure, in the same setting: for `C#CCOc1ccccc1/C=C/c1cc(=O)c2ccc(OC)cc2o1` [Compound 7b, (E)-7-Methoxy-2-[2-(prop-2-yn-1-yloxy)styryl]-4H-chromen-4-one] the value was 23 ± 1.8%; for `COc1ccc2c(=O)c3cc4c(cc3oc2c1)-c1ccccc1OC4` [Compound 11b, 11-Methoxy-6H,8H-chromeno[3,4-b]xanthen-8-one], 22 ± 2.7%; for `C#CCOc1ccc(F)cc1/C=C/c1cc(=O)c2ccc(OC)cc2o1` [Compound 7u, (E)-2-[5-Fluoro-2-(prop-2-yn-1-yloxy)styryl]-7-methoxy-4H-chromen-4-one], 28 ± 3.5%.
Turning to `O=c1c2ccccc2oc2cc3c(cc12)COc1ccc2ccccc2c1-3` [Compound 12a], the inhibition at 50 µM came out at 43 ± 3.9%.
The same measure, in the same setting: then `Cc1ccc(C#CCOc2ccccc2/C=C/c2cc(=O)c3ccccc3o2)cc1` [Compound 7o, (E)-2-(2-{[3-(4-methylphenyl)prop-2-yn-1-yl]oxy}styryl)-4H-chromen-4-one], with 37 ± 2%.
Still for that read-out and setting: then `C#CCOc1ccc(Cl)cc1/C=C/c1cc(=O)c2ccccc2o1` [Compound 7j, (E)-2-[5-Chloro-2-(prop-2-yn-1-yloxy)styryl]-4H-chromen-4-one], with 11 ± 2.3%; and `C#CCOc1ccc(F)cc1/C=C/c1cc(=O)c2ccccc2o1` [Compound 7i, (E)-2-[5-Fluoro-2-(prop-2-yn-1-yloxy)styryl]-4H-chromen-4-one], with 22 ± 4.8%; and `C#CCOc1ccc(OC)cc1/C=C/c1cc(=O)c2ccc(OC)c(OC)c2o1` [Compound 7r], with 40 ± 5.6%.
Take `C#CCOc1c(Br)cc(Cl)cc1/C=C/c1cc(=O)c2ccccc2o1` [Compound 7k, (E)-2-[3-Bromo-5-chloro-2-(prop-2-yn-1-yloxy)styryl]-4H-chromen-4-one]: the inhibition at 50 µM turned out to be 24 ± 3%.
The same measure, in the same setting: for `COc1cccc2oc3cc4c(cc3c(=O)c12)COc1ccccc1-4` [Compound 11c, 9-Methoxy-6H,8H-chromeno[3,4-b]xanthen-8-one] the value was 34 ± 4.4%; for `O=c1cc(/C=C/c2ccccc2OCC#Cc2ccccc2)oc2ccccc12` [Compound 7m, (E)-2-{2-[(3-Phenylprop-2-yn-1-yl)oxy]styryl}-4H-chromen-4-one], 28 ± 3.8%.
The same measure, in the same setting: then `COc1ccc2c(c1)-c1cc3oc4cc(OC)cc(OC)c4c(=O)c3cc1CO2` [Compound 11o, 2,9,11-Trimethoxy-6H,8H-chromeno[3,4-b]xanthen-8-one], with 33 ± 4.3%.
Take `C#CCOc1ccccc1/C=C/c1cc(=O)c2c(OC)cccc2o1` [Compound 7c, (E)-5-Methoxy-2-[2-(prop-2-yn-1-yloxy)styryl]-4H-chromen-4-one]: the inhibition at 50 µM was found to be 33 ± 2.2%.
For the compound `C#CCOc1ccc2ccccc2c1/C=C/c1cc(=O)c2ccccc2o1` [Compound 8a], the inhibition at 50 µM was 47 ± 3.9%.
With `O=c1c2ccccc2oc2cc3c(cc12)COc1ccc(Br)cc1-3` [Compound 11g, 2-Bromo-6H,8H-chromeno[3,4-b]xanthen-8-one], the inhibition at 50 µM is 36 ± 4.8%.
On to `N#CCOc1ccccc1/C=C/c1cc(=O)c2ccccc2o1` [Compound 7l, (E)-2-{2-[2-(4-oxo-4H-chromen-2-yl)vinyl]phenoxy}acetonitrile], for which the inhibition at 50 µM amounted to 34 ± 5.2%.
Still for that read-out and setting: for `COc1ccc2c(=O)c3cc4c(cc3oc2c1)-c1cc(OC(F)(F)F)ccc1OC4` [Compound 11p, 11-Methoxy-2-(trifluoromethoxy)-6H,8H-chromeno[3,4-b]xanthen-8-one] the value was 29 ± 7.6%.
Consider `C#CCOc1ccc(Cl)cc1/C=C/c1cc(=O)c2ccc(OC)cc2o1` [Compound 7v, (E)-2-[5-Chloro-2-(prop-2-yn-1-yloxy)styryl]-7-methoxy-4H-chromen-4-one], for which the inhibition at 50 µM was found to be 17 ± 2%.
As to `C#CCOc1ccc(OC)cc1/C=C/c1cc(=O)c2c(OC)cc(OC)cc2o1` [Compound 7s, (E)-5,7-Dimethoxy-2-[5-methoxy-2-(prop-2-yn-1-yloxy)styryl]-4H-chromen-4-one], the inhibition at 50 µM came to 50 ± 1.6%.
Take `C#CCOc1ccc(OC)cc1/C=C/c1cc(=O)c2ccc(OC)cc2o1` [Compound 7p, (E)-7-Methoxy-2-[5-methoxy-2-(prop-2-yn-1-yloxy)styryl]-4H-chromen-4-one]: the inhibition at 50 µM came to 11 ± 1.5%.
On the same count and under the same terms, then `C#CCOc1ccc(OC(F)(F)F)cc1/C=C/c1cc(=O)c2ccc(OC)cc2o1` [Compound 7t, (E)-7-Methoxy-2-[2-(prop-2-yn-1-yloxy)-5-(trifluoromethoxy)styryl]-4H-chromen-4-one], with 20 ± 2.3%; and `C#CCOc1ccccc1/C=C/c1cc(=O)c2c(OC)cc(OC)cc2o1` [Compound 7e, (E)-5,7-Dimethoxy-2-[2-(prop-2-yn-1-yloxy)styryl]-4H-chromen-4-one], with 24 ± 1.7%.

The target of another test is eeAChE (Electrophorus electricus AChE) (Electrophorus electricus, UniProt O42275). As to the kind of experiment: Cholinesterase inhibition assay (modified Ellman's method), eeAChE. It is filed as biochemical. The settings on record: mean ± SEM, n = 3; n.a = nonactive; IC50 determined only if inhibition higher than 50% at 20 μM. An excerpt:
Compound series A and B were initially screened for their cholinesterase activity against eeAChE (Electrophorus electricus AChE) and eqBChE (equine serum butyrylcholinesterase), using an adaptation of the Ellman’s method. […]. […] Similarly, replacing the terminal triple bond in 7l with a nitrile group reduced its activity, while replacing the O-propargyl group with an N,N-dipropargyl group in 10 enhanced the inhibition of both enzymes, particularly BChE (Table ). The installation of an additional aryl ring in 7o further improved AChE inhibition, slightly increasing selectivity toward this enzyme. […]. […]. […]. The inhibitory activity of the synthesized compounds toward eeAChE and eqBChE was evaluated spectrophotometrically through a 96-well microplate modified Ellman’s method. The solutions of both enzymes were prepared as 0.025 U/mL in phosphate buffer at pH 7, from stock solutions of 5.05 U/mL and 7.50 U/mL, respectively. The stock solutions for the target compounds (0.1 M) were prepared in dimethyl sulfoxide (DMSO). […] The reaction mixture was prepared with 100 μL of the enzyme (eeAChE or eqBChE) and 50 μL of the test compound (or DMSO/water, not exceeding 0.2% of DMSO in the wells; i.e blank samples). After 5 min of the preincubation period at 37 °C, 50 μL of ATChI or BTChI and 50 μL of DTNB were added to each well, thus initiating the enzymatic reaction. The absorbance values were measured at 415 nm, for a total of 7.5 min, at every 2.5 min, using a microplate reader (Synergy multimode reader; BioTek). […]. All experiments were performed in triplicate.
Background: In Ellman's method for cholinesterases, released thiocholine reacts with DTNB.
Broadly, the IC50 is the point on the concentration scale where inhibition reaches its midpoint. Consider `O=c1c2ccccc2oc2cc3c(cc12)COc1ccccc1-3` [Compound 11a, 6H,8H-Chromeno[3,4-b]xanthen-8-one], for which the IC50 is 2100 ± 200 nM.
With `COc1ccc2c(=O)c3cc4c(cc3oc2c1)-c1ccccc1OC4` [Compound 11b, 11-Methoxy-6H,8H-chromeno[3,4-b]xanthen-8-one], the IC50 came out at 3900 ± 900 nM.
The same measure, in the same setting: then `Cc1ccc(C#CCOc2ccccc2/C=C/c2cc(=O)c3ccccc3o2)cc1` [Compound 7o, (E)-2-(2-{[3-(4-methylphenyl)prop-2-yn-1-yl]oxy}styryl)-4H-chromen-4-one], with 2900 ± 500 nM.
